Measurements reported in patent US4871748A, “Phenylpropargylamine derivatives” (May & Baker Limited, priority 1984, dated 1989).

Assay: Acute Oral Toxicity in Mice (Laboratory Strain)
Conditions: mouse, in vivo, aqueous suspension, mg/kg animal body weight, observed until no deaths for at least three days
Description: Acute Oral Toxicity in Mice (Laboratory Strain)
Groups of mice were dosed orally with graded doses of the test compound in aqueous suspension and observed until there had been no deaths for at least three days. The acute oral LD50, that is to say the dose in mg/kg animal body weight necessary to kill 50% of the mice, was determined from the numbers of animals for each dose which died during the observation period by reference to published tables.
Compound `CC(=O)O.CC(C)(CO)C1CCN(CC#Cc2cc(C(F)(F)F)cc(C(F)(F)F)c2)CC1` [1 (as acetate), 1-(3,5-bistrifluoromethylphenyl)-3-[4-(1,1-dimethyl-2-hydroxyethyl)piperidino]prop-1-yne acetate] has an LD50 of 95 mg/kg. `CC(C)(CO)C1CCN(CC#Cc2cc(C(F)(F)F)cc(C(F)(F)F)c2)CC1.NS(=O)(=O)O` [1 (as sulphamate), 1-(3,5-bistrifluoromethylphenyl)-3-[4-(1,1-dimethyl-2-hydroxyethyl)piperidino]prop-1-yne sulphamate] gave an LD50 of 72 mg/kg. Compound `CC(C)(C=O)C1CCN(CC#Cc2cc(C(F)(F)F)cc(C(F)(F)F)c2)CC1.Cl` [4 (as hydrochloride), 1-(3,5-bistrifluoromethylphenyl)-3-[4-(1,1-dimethyl-2-oxoethyl)piperidino]prop-1-yne hydrochloride] has an LD50 of 68 mg/kg. `COCC(C)(C)C1CCN(CC#Cc2cc(C(F)(F)F)cc(C(F)(F)F)c2)CC1.Cl` [2 (as hydrochloride), 1-(3,5-bistrifluoromethylphenyl)-3-[4-(1,1-dimethyl-2-methoxyethyl)piperidino]prop-1-yne hydrochloride] gave an LD50 of 68 mg/kg. For `CC(C)(CO)C1CCN(CC#Cc2cc(C(F)(F)F)cc(C(F)(F)F)c2)CC1` [1 (as free base), 1-(3,5-bistrifluoromethylphenyl)-3-[4-(1,1-dimethyl-2-hydroxyethyl)piperidino]prop-1-yne], the LD50 was 78 mg/kg. `CC(=O)OCC(C)(C)C1CCN(CC#Cc2cc(C(F)(F)F)cc(C(F)(F)F)c2)CC1.Cl` [3 (as hydrochloride), 1-(3,5-bistrifluoromethylphenyl)-3-[4-(1,1-dimethyl-2-acetyloxyethyl)piperidino]prop-1-yne hydrochloride] gave an LD50 of 68 mg/kg. In the case of `CC(C)(CO)C1CCN(CC#Cc2cc(C(F)(F)F)cc(C(F)(F)F)c2)CC1.O=[N+]([O-])O` [1 (as nitrate), 1-(3,5-bistrifluoromethylphenyl)-3-[4-(1,1-dimethyl-2-hydroxyethyl)piperidino]prop-1-yne nitrate], the LD50 is reported as 72 mg/kg. `CC(C)(CO)C1CCN(CC#Cc2cc(C(F)(F)F)cc(C(F)(F)F)c2)CC1.Cl` [1 (as hydrochloride), 1-(3,5-bistrifluoromethylphenyl)-3-[4-(1,1-dimethyl-2-hydroxyethyl)piperidino]-prop-1yne hydrochloride] gave an LD50 of 62 mg/kg.
